According to article PMC2654097, “Orally Available Selective Melanocortin-4 Receptor Antagonists Stimulate Food Intake and Reduce Cancer-Induced Cachexia in Mice” (PLoS ONE, 2009):
Read-outs that look alike come from different tables or passages of the source. Ends that are not written are not given here.

What was measured:
[1] = system: models of cancer-induced anorexia; design: method as in PMID 17584133, PMID 15800806; conditions: central administration; cited from earlier work
MC-4 receptor [2] = biological target: MC-4 receptor; design: method as in earlier work; conditions: function; cited from earlier work
MC-4 receptor [3] = biological target: MC-4 receptor; design: method as in earlier work; conditions: binding; read-out: IC50 (binding) / affinity on the MC-4 receptor; cited from earlier work
[4] = Brain and plasma concentrations in vivo; conditions: 60 mg/kg p.o., CD-1 mice; for Brain AUC / Plasma AUC: 0-6 hr; for Brain/plasma ratio: calculated from AUC
Protocol: Twelve weeks old male CD-1 (Hilltop Lab Animals, PA, USA) mice were dosed by gavage with either SNT207707 or SNT207858 at 60 mg/kg (n = 9 per compound). At 1, 3, and 6 hrs post-dose, 3 mice from each compound group were euthanized with CO2. Blood was collected by cardiac puncture, plasma was isolated immediately and then kept on dry ice until analysis. Brains were removed, rinsed with saline solution and stored at −80°C until analysis. Levels of the compound were determined by HPLC followed by mass spectrometry (MS/MS). Areas under the curve (AUC) of plasma and brain levels were computed from measured levels at 1, 3 and 6 hrs post-dose. Brain/plasma ratios were then calculated based on the AUCs. To assess the integrity of the blood-brain-barrier all animals were co-dosed with 10 mg/kg Atenolol.

healthy mice = test: Light phase food intake; format: in vivo, NMRI mice; conditions: for effect on food intake, single dose comparison / effect on food intake: 4 hrs; for effect on food intake, single dose comparison: p<0.01 vs vehicle; for amount of food taken relative to vehicle control group: p.o., four hour post-treatment observation period; for effect on food intake: single oral treatment by gavage, dose range; for effect on food intake / amount of food taken relative to vehicle treated controls: light phase; for amount of food taken relative to vehicle treated controls: single s.c. injection 20 mg/kg, 4 hrs observation, p<0.01
Protocol: Six weeks old female NMRI mice (RCC Ltd.; Füllinsdorf, CH) were randomly assigned to the various experimental groups and the vehicle controls. They were housed in groups of 3 mice per cage. After at least one week of acclimatization in the experimental room, each animal's weight was determined and compound or vehicle was administered at appropriate concentrations 5 hrs after lights on. Then, food consumption of each cage group was recorded by weighing of the food hopper over a period of 4 hrs. Food intake was then determined as the difference in food hopper weight at the beginning and end of the 4 hrs following administration of the compound or the vehicle. Since the amount of food taken over 4 hrs by single animals was close to the limit of detection, we decided to rely on mean food amounts taken per cage (i.e., per 3 mice), whereby each treatment group consisted of n = 6 cages. The measured values from each cage were normalized to 100 g body weight (BW). Previous experiments indicated an excellent correlation between food intake and reduction of food weight.

C26 tumor bearing mice = test: C26 adenocarcinoma-induced cachexia model; format: in vivo, BALB/c mice; conditions: for tumor induced weight loss: 30 mg/kg p.o. once daily starting the day after tumor implantation; for body composition (lean body mass and fat mass) / tumor weight / mice that did not show cachexia (loss of more than 5% of body weight): 30 mg/kg p.o. once daily; for body composition (lean body mass and fat mass): day 0 vs day 15, MRI relaxometry; for tumor weight: end of experiment, mean±SEM, not different from Vehicle+Tumor controls; for mice that did not show cachexia (loss of more than 5% of body weight): n = 9, Vehicle+Tumor controls 2 of 9 and 3 of 9
Protocol: Six week old male BALB/c mice (Harlan, The Netherlands) were used. The animals were single housed, and after a one week adaption period randomly assigned to the experimental or control groups. For the tumor implantation the mice were anaesthetized with 200 µl of ketamine/xylazine. Approximately 1×10^6 C26 cells suspended in phosphate buffered saline were then implanted unilaterally in the flank of the mice by subcutaneous injection. The non-tumor controls underwent the same procedure but received PBS injection only (n = 9 per group). Starting on the first day after tumor implantation, compounds or vehicle were administered orally in 5 ml/kg 1–2 hrs before the onset of the dark phase. Food intake and body weight were recorded daily. Lean and fat mass of each animal were determined by MRI relaxometry (EchoMRI-500, Echo Medical Systems, Houston, TX, USA) prior to tumor inoculation (day 0) and at the end of the experiment after removal of the tumor (typically day 15).

MC-3 = system: MC-3; design: method as in earlier work; conditions: MC-4 vs. MC-3; cited from earlier work
MC-5 = system: MC-5; design: method as in earlier work; conditions: MC-4 vs. MC-5; cited from earlier work
[5] = system: animals implanted with a colorectal tumor; design: method as in PMID 15027849; conditions: subcutaneous administration; cited from earlier work
[6] = system: animals implanted with Lewis lung carcinoma; conditions: subcutaneous administration; cited from earlier work

| Compound | food intake [1] | IC50 (MC-4 receptor [2]) [nM] | IC50 (MC-4 receptor [3]) [nM] | Brain AUC [4] [µM·h] | Plasma AUC [4] [µM·h] | Brain/plasma ratio [4] | Plasma peak ([4]; levels at 1, 3, 6 hrs) [nM] | effect on food intake, single dose comparison (healthy mice; p.o. 120 mg/kg) | amount of food taken relative to vehicle control group (healthy mice) | effect on food intake (healthy mice) | amount of food taken relative to vehicle treated controls (healthy mice) | tumor induced weight loss (C26 tumor bearing mice) | body composition (lean body mass and fat mass) (C26 tumor bearing mice) | tumor weight (C26 tumor bearing mice) [g] | mice that did not show cachexia (loss of more than 5% of body weight) (C26 tumor bearing mice) | selectivity vs. MC-3 (MC-3) | selectivity vs. MC-5 (MC-5) | also measured |
| --- | --- | --- | --- | --- | --- | --- | --- | --- | --- | --- | --- | --- | --- | --- | --- | --- | --- | --- |
| AgRP: agouti-related protein, the endogenous inverse agonist at the MC-4 receptor (SSRRCVRLHESCLGQQVPCCDPCATCYCRFFNAFCYCRKLGTAMNPCSRT; ends and bridges not checked; cysteine pairing not given here; UniProt O00253 83-132, looked up) | increased food intake |  |  |  |  |  |  |  |  |  |  |  |  |  |  |  |  |  |
| SHU-9119 [reference compound] | increased food intake |  |  |  |  |  |  |  |  |  |  |  |  |  |  |  |  |  |
| CC[C@H](COc1cccnc1C1CCN(C(=O)[C@@H](Cc2ccc(Cl)cc2Cl)NC(=O)N2CCCC2)CC1)N1CCCC1 [SNT207858] |  | 11 | 22 | 0.437 | 4.405 | 0.10 | 1520 | statistically significant increases in food intake | roughly up to four times | dose-dependently increased the food intake | roughly 3 fold | significantly reduced the tumor induced weight loss | loss of lean body mass and loss of fat mass was reduced | 1.11 ± 0.09 | 6 out of 9 | 170 fold | 40 fold | effect on food intake, single dose comparison (healthy mice; p.o. 60 mg/kg): statistically significant increases in food intake |
| COc1ccc(Br)cc1CCc1c(F)cccc1C1=NCCN1 [ML00253764, 2-[2-[2-(5-bromo-2-methoxyphenyl)-ethyl]-3-fluorophenyl]-4,5-dihydro-1H-imidazole] |  |  |  |  |  |  |  |  |  |  |  |  |  |  |  |  |  | cachexia [5]: efficacious in reducing cachexia; cachexia [6]: efficacious in reducing cachexia |
| CC(C)CCN(CCC(C)C)C(=O)c1ccc2nc(-c3ccc(C#N)cc3)c(CCCN3CCCC3)n2c1.Cl [SNT207707] |  | 5 | 8 | 2.307 | 6.373 | 0.36 | 1960 | statistically significant increases in food intake | roughly up to four times | dose-dependently increased the food intake | roughly 3 fold | significantly reduced the tumor induced weight loss | loss of lean body mass and loss of fat mass was reduced | 1.03 ± 0.07 | 8 out of 9 | more than 200 fold | more than 200 fold | Brain peak ([4]; levels at 1, 3, 6 hrs): ~580 nM |
